Earlier results in patent publication US9205144B2, “Identification of conserved peptide blocks in homologous polypeptides” (Dana-Farber Cancer Institute, Inc., priority 2011, dated 2015).

Assays:
HLA-03 = HLA-03 (Homo sapiens, UniProt P04439)
Chain of HLA-03 (P04439 25-365): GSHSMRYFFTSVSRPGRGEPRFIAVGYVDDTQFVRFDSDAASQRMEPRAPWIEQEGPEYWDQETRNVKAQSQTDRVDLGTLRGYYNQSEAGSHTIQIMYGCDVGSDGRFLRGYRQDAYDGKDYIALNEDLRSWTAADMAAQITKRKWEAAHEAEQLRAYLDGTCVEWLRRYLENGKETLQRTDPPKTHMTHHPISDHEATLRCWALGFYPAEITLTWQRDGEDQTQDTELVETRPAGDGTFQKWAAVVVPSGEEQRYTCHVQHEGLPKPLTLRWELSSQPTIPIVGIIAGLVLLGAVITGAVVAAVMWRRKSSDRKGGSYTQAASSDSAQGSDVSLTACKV
Chain of HLA-03 (P61769 21-119, further chain): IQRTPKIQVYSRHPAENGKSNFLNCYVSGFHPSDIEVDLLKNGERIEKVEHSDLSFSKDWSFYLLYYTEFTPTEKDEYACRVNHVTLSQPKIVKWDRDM

KTFDTEYQK (listed as Dengue virus) [Peptide 1]
known ligand: ligand for HLA-11 (HLA-11) | ligand for HLA-03 (HLA-03) | ligand for HLA-31 (HLA-31)
